Data: patent publication US6355799B1, “Substituted benzene compounds, process for their preparation, and herbicidal and defoliant compositions containing them” (ISK Americas Incorporated, priority 1997, dated 2002)

Tests used:
Type in all cases: in vivo
[1] = test system: field corn (Zea mays L., var. Dekalb 535, CORN); experiment: Post-emerge test, crop safety; details: phytotoxicity rating 0-100 (0 no damage, 100 complete death), 14 days after application
Method in brief: (§1)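 Fourteen days after spraying, crop and weed injury was graded visually from 0, no effect, to 100, every plant dead. Test substances were dissolved in acetone and applied at 15–1000 g ai/ha with a flat-fan nozzle. Application was either pre-emergence, one day after sowing, or post-emergence at the 2–3 leaf stage.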

[2] = test system: upland rice (Oryza sp., var. Tebonnet, RICE); experiment: Post-emerge test, crop safety; details: phytotoxicity rating 0-100 (0 no damage, 100 complete death), 14 days after application
Method in brief: as §1

[3] = test system: barnyardgrass (Echinochloa crus-galli, ECHCG); experiment: Post-emerge test, greenhouse herbicide activity screening; details: phytotoxicity rating 0-100 (0 no damage, 100 complete death), 14 days after application
Method in brief: (§2)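 Applied at 15–1000 g ai/ha from acetone in 187 l/ha spray volume. Post-emergence applications included 0.25% v/v non-ionic surfactant and reached plants sown 8–21 days before. Pre-emergence applications were incorporated by surface watering. Efficacy or crop damage was rated on a 0–100 scale after 14 days.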

[4] = test system: velvetleaf (Abutilon theophrasti, ABUTH); experiment: as above; details: phytotoxicity rating 0-100 (0 no damage, 100 complete death), 14 days after application
Method in brief: as §2

[5] = test system: ivyleaf morningglory (Ipomoea hederacea, IPOHE); experiment: as above; details: phytotoxicity rating 0-100 (0 no damage, 100 complete death), 14 days after application
Method in brief: as §2

[6] = test system: sicklepod (Cassia obtusifolia, CASOB); experiment: as above; details: phytotoxicity rating 0-100 (0 no damage, 100 complete death), 14 days after application
Method in brief: as §2

[7] = test system: johnsongrass (Sorghum halepense, SORHA); experiment: as above; details: phytotoxicity rating 0-100 (0 no damage, 100 complete death), 14 days after application
Method in brief: as §2

[8] = test system: redroot pigweed (Amaranthus retroflexus, AMARE); experiment: as above; details: phytotoxicity rating 0-100 (0 no damage, 100 complete death), 14 days after application
Method in brief: as §2

[9] = test system: lambsquarters (Chenopodium album, CHEAL); experiment: as above; details: phytotoxicity rating 0-100 (0 no damage, 100 complete death), 14 days after application
Method in brief: as §2

[10] = test system: large crabgrass (Digitaria sanguinalis, DIGSA); experiment: as above; details: phytotoxicity rating 0-100 (0 no damage, 100 complete death), 14 days after application
Method in brief: as §2

[11] = test system: green foxtail (Setaria viridis, SETVI); experiment: as above; details: phytotoxicity rating 0-100 (0 no damage, 100 complete death), 14 days after application
Method in brief: as §2

[12] = test system: barnyardgrass (Echinochloa crus-galli, ECHCG); experiment: Pre-emerge test, greenhouse herbicide activity screening; details: pre-emerge, rated 14 days after application, 0 = no damage, 100 = complete death
Method in brief: as §1

[13] = test system: velvetleaf (Abutilon theophrasti, ABUTH); experiment: as above; details: pre-emerge, rated 14 days after application, 0 = no damage, 100 = complete death
Method in brief: as §1

[14] = test system: ivyleaf morningglory (Ipomoea hederacea, IPOHE); experiment: as above; details: pre-emerge, rated 14 days after application, 0 = no damage, 100 = complete death
Method in brief: as §1

[15] = test system: sicklepod (Cassia obtusifolia, CASOB); experiment: as above; details: pre-emerge, rated 14 days after application, 0 = no damage, 100 = complete death
Method in brief: as §1

[16] = test system: johnsongrass (Sorghum halepense, SORHA); experiment: as above; details: pre-emerge, rated 14 days after application, 0 = no damage, 100 = complete death
Method in brief: as §1

[17] = test system: lambsquarters (Chenopodium album, CHEAL); experiment: as above; details: pre-emerge, rated 14 days after application, 0 = no damage, 100 = complete death
Method in brief: as §1

[18] = test system: large crabgrass (Digitaria sanguinalis, DIGSA); experiment: as above; details: pre-emerge, rated 14 days after application, 0 = no damage, 100 = complete death
Method in brief: as §1

[19] = test system: green foxtail (Setaria viridis, SETVI); experiment: as above; details: pre-emerge, rated 14 days after application, 0 = no damage, 100 = complete death
Method in brief: as §1

[20] = test system: field corn (Zea mays L., var. Dekalb 535, CORN); experiment: Pre-emerge test, crop safety; details: pre-emerge, rated 14 days after application, 0 = no damage, 100 = complete death
Method in brief: (§3)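 Sandy loam pots; pre-emerge: sown 1 d pre-spray, surface-watered after, then bottom-watered. Post-emerge: sown 8–21 d before, 2–3 leaf stage, + 0.25% v/v NIS, bottom-watered. Acetone, 187 l/ha track spray, 15–1000 g ai/ha. 0–100 injury score, day 14.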

[21] = test system: upland rice (Oryza sp., var. Tebonnet, RICE); experiment: Pre-emerge test, crop safety; details: pre-emerge, rated 14 days after application, 0 = no damage, 100 = complete death
Method in brief: as §3

[22] = test system: redroot pigweed (Amaranthus retroflexus, AMARE); experiment: Pre-emerge test, greenhouse herbicide activity screening; details: pre-emerge, rated 14 days after application, 0 = no damage, 100 = complete death
Method in brief: as §3

Cn1c(C(F)(F)F)cc(=O)n(-c2c(F)cc(Cl)c(OCc3ccccc3)c2N)c1=O [Compound 1-22]
15: Post-emerge Herbicidal Activity CORN (crop damage) ([1]; 250 g ai/ha)
95: Pre-emerge Herbicidal Activity CHEAL (phytotoxicity rating, scale 0-100) ([17]; 63 g ai/ha) | Pre-emerge Herbicidal Activity AMARE (phytotoxicity rating, scale 0-100) ([22]; 63 g ai/ha)
20: Pre-emerge Herbicidal Activity IPOHE (phytotoxicity rating, scale 0-100) ([14]; 250 g ai/ha)
5: Post-emerge Herbicidal Activity CORN (crop damage) ([1]; 63 g ai/ha)
10: Post-emerge Herbicidal Activity RICE (crop damage) ([2]; 63 g ai/ha) | Post-emerge Herbicidal Activity SORHA ([7]; 250 g ai/ha) | Pre-emerge crop damage CORN (phytotoxicity rating, scale 0-100) ([20]; 250 g ai/ha)
60: Post-emerge Herbicidal Activity AMARE ([8]; 63 g ai/ha) | Pre-emerge Herbicidal Activity ECHCG (phytotoxicity rating, scale 0-100) ([12]; 250 g ai/ha) | Pre-emerge Herbicidal Activity SORHA (phytotoxicity rating, scale 0-100) ([16]; 250 g ai/ha) | Pre-emerge Herbicidal Activity DIGSA (phytotoxicity rating, scale 0-100) ([18]; 250 g ai/ha)
90: Post-emerge Herbicidal Activity IPOHE ([5]; 250 g ai/ha) | Pre-emerge Herbicidal Activity SETVI (phytotoxicity rating, scale 0-100) ([19]; 63 g ai/ha)
80: Post-emerge Herbicidal Activity AMARE ([8]; 250 g ai/ha) | Post-emerge Herbicidal Activity CHEAL ([9]; 250 g ai/ha) | Post-emerge Herbicidal Activity SETVI ([11]; 250 g ai/ha)
50: Pre-emerge crop damage RICE (phytotoxicity rating, scale 0-100) ([21]; 250 g ai/ha)
40: Post-emerge Herbicidal Activity RICE (crop damage) ([2]; 250 g ai/ha) | Post-emerge Herbicidal Activity IPOHE ([5]; 63 g ai/ha) | Post-emerge Herbicidal Activity CHEAL ([9]; 63 g ai/ha)
100: Post-emerge Herbicidal Activity ABUTH ([4]; 63 g ai/ha) | Post-emerge Herbicidal Activity ABUTH ([4]; 250 g ai/ha) | Pre-emerge Herbicidal Activity ABUTH (phytotoxicity rating, scale 0-100) ([13]; 63 g ai/ha) | Pre-emerge Herbicidal Activity ABUTH (phytotoxicity rating, scale 0-100) ([13]; 250 g ai/ha) | Pre-emerge Herbicidal Activity CHEAL (phytotoxicity rating, scale 0-100) ([17]; 250 g ai/ha) | Pre-emerge Herbicidal Activity SETVI (phytotoxicity rating, scale 0-100) ([19]; 250 g ai/ha) | Pre-emerge Herbicidal Activity AMARE (phytotoxicity rating, scale 0-100) ([22]; 250 g ai/ha)
0: Post-emerge Herbicidal Activity ECHCG ([3]; 63 g ai/ha) | Post-emerge Herbicidal Activity ECHCG ([3]; 250 g ai/ha) | Post-emerge Herbicidal Activity CASOB ([6]; 63 g ai/ha) | Post-emerge Herbicidal Activity CASOB ([6]; 250 g ai/ha) | Post-emerge Herbicidal Activity SORHA ([7]; 63 g ai/ha) | Post-emerge Herbicidal Activity DIGSA ([10]; 63 g ai/ha) | Post-emerge Herbicidal Activity DIGSA ([10]; 250 g ai/ha) | Post-emerge Herbicidal Activity SETVI ([11]; 63 g ai/ha) | Pre-emerge Herbicidal Activity ECHCG (phytotoxicity rating, scale 0-100) ([12]; 63 g ai/ha) | Pre-emerge Herbicidal Activity IPOHE (phytotoxicity rating, scale 0-100) ([14]; 63 g ai/ha) | Pre-emerge Herbicidal Activity CASOB (phytotoxicity rating, scale 0-100) ([15]; 63 g ai/ha) | Pre-emerge Herbicidal Activity CASOB (phytotoxicity rating, scale 0-100) ([15]; 250 g ai/ha) | Pre-emerge Herbicidal Activity SORHA (phytotoxicity rating, scale 0-100) ([16]; 63 g ai/ha) | Pre-emerge Herbicidal Activity DIGSA (phytotoxicity rating, scale 0-100) ([18]; 63 g ai/ha) | Pre-emerge crop damage CORN (phytotoxicity rating, scale 0-100) ([20]; 63 g ai/ha) | Pre-emerge crop damage RICE (phytotoxicity rating, scale 0-100) ([21]; 63 g ai/ha)
